Results published in ChEMBL document CHEMBL2406984, “Design and synthesis of hydroxyethylamine (HEA) BACE-1 inhibitors: prime side chromane-containing inhibitors” (Bioorg Med Chem Lett, 2013).

What was measured:
Cathepsin D = Cathepsin D (Homo sapiens, UniProt P07339); assay: Inhibition of cathepsin-D (unknown origin) using C-terminal biotinylated peptide substrate treated 30 mins before addition of peptide substrate measured after 110 mins by fluorescence polarization assay
[1] = Apparent permeability of the compound from apical to basolateral side of MDCK2 cells at 5 uM after 120 mins by LC/MS/MS analysis; format: ADME, cell-based, Canis lupus familiaris, MDCK-II; settings: dog, MDCK
Beta-secretase 1 = Beta-secretase 1 (Homo sapiens, UniProt P56817); assay: Inhibition of recombinant BACE-1 (unknown origin) expressed in Escherichia coli using biotinylated peptide substrate treated 20 mins before substrate addition measured after 3 hrs by fluorescence polarization assay
[2] = Lipophilicity, log P of the compound; format: physicochemical; settings: octanol/water
[3] = Dissociation constant, pKa of the compound; format: physicochemical

Cathepsin D, sequence (P07339 65-162 limits assumed): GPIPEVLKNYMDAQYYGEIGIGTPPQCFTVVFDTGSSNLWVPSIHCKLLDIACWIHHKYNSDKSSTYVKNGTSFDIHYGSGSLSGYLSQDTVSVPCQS
Cathepsin D, sequence (P07339 169-412 limits assumed): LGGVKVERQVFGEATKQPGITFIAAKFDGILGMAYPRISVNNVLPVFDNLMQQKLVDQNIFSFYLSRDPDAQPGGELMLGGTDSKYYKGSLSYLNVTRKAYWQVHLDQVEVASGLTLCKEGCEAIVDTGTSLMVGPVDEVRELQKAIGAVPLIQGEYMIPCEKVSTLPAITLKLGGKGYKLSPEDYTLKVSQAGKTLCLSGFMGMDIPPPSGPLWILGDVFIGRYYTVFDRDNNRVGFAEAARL
Beta-secretase 1, sequence (P56817 whole entry): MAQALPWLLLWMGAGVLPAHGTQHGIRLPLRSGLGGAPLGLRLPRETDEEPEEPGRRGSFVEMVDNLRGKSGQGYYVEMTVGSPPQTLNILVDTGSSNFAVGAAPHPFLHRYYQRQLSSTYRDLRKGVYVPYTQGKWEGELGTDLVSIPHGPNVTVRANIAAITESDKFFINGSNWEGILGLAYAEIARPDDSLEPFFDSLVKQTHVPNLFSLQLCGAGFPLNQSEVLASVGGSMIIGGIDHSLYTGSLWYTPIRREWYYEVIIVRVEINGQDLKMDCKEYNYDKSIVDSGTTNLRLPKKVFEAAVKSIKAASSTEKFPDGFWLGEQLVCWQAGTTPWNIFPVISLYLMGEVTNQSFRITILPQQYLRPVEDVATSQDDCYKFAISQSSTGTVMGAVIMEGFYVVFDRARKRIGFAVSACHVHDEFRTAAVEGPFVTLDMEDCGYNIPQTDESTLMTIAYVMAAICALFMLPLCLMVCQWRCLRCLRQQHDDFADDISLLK

| Compound | IC50 (Cathepsin D) [nM] | Papp A→B at 2 h, 5 µM [1] [×10⁻⁶ cm/s] | IC50 (Beta-secretase 1) [nM] | logP [2] | pKa [3] |
| --- | --- | --- | --- | --- | --- |
| CC(=O)N[C@@H](Cc1cc(F)cc(F)c1)[C@H](O)CN[C@H]1CCOc2ccc(CC(C)(C)C)cc21 | 12 | 3 | 46 |  |  |
| CCc1ccc2c(c1)[C@@H](NC[C@@H](O)[C@H](Cc1cc(F)cc(F)c1)NC(C)=O)CCC2 | 126 |  | 538 |  |  |
| CC(=O)N[C@@H](Cc1cc(F)cc(F)c1)[C@H](O)CN[C@H]1CCOc2ccc(CC(C)(C)C#N)cc21 | 70 | 6.4 | 60 |  |  |
| CC(=O)N[C@@H](Cc1cc(F)cc(F)c1)[C@H](O)CN[C@H]1CCCc2ccc(Cc3ccccc3)cc21 | 251 |  | 4700 |  |  |
| CCC[C@]1(C)C[C@H](NC[C@@H](O)[C@H](Cc2cc(F)cc(F)c2)NC(C)=O)c2cc(CC(C)(C)C)ccc2O1 | 2 |  | 15 |  |  |
| CC(=O)N[C@@H](Cc1cc(F)cc(F)c1)[C@H](O)CN[C@H]1CCCc2ccc(CC(C)C)cc21 |  |  | 93 |  |  |
| CC(=O)N[C@@H](Cc1cc(F)cc(F)c1)[C@H](O)CN[C@H]1CCOc2ccc(OC3CCOC3)cc21 (mixture of isomers) | 255 | 7.1 | 858 |  |  |
| CCC[C@@]1(C)C[C@H](NC[C@@H](O)[C@H](Cc2cc(F)cc(F)c2)NC(C)=O)c2cc(CC(C)(C)C)ccc2O1 | 1 |  | 6 |  |  |
| CC(=O)N[C@@H](Cc1cc(F)cc(F)c1)[C@H](O)CN[C@H]1CCOc2ccc(CC(C)(F)F)cc21 | 144 | 14.6 | 186 |  |  |
| CC(=O)N[C@@H](Cc1cc(F)cc(F)c1)[C@H](O)CN[C@H]1CC2(CC2)Oc2ccc(CC(C)(C)C)cc21 (mixture of isomers) | 6 |  | 22 |  |  |
| CC(=O)N[C@@H](Cc1cc(F)cc(F)c1)[C@H](O)CN[C@H]1CS(=O)(=O)Cc2ccc(C(C)C)cc21 | 940 |  | 127 |  |  |
| CC(=O)N[C@@H](Cc1cc(F)cc(F)c1)[C@H](O)CN[C@H]1CS(=O)(=O)Cc2ccc(CC(C)(C)C)cc21 | 362 |  | 42 |  |  |
| CC(=O)N[C@@H](Cc1cc(F)cc(F)c1)[C@H](O)CN[C@H]1COCc2ccc(CC(C)(C)C)cc21 |  |  | 19700 |  |  |
| CCc1ccc2c(c1)[C@@H](NC[C@@H](O)[C@H](Cc1cc(F)cc(F)c1)NC(C)=O)CS(=O)(=O)C2 | 2840 | 0.3 | 116 | 3.2 | 5.8 |
| CC(=O)N[C@@H](Cc1cc(F)cc(F)c1)[C@H](O)CN[C@H]1CCOc2ccc(OC3CCCC3)cc21 | 145 |  | 221 |  |  |
| CC(=O)N[C@@H](Cc1cc(F)cc(F)c1)[C@H](O)CN[C@H]1CCN(C)c2ccc(CC(C)(C)C)cc21 | 68 |  | 643 |  |  |
| CC(=O)N[C@@H](Cc1cc(F)cc(F)c1)[C@H](O)CN[C@H]1CCCc2ccc(CC(C)(C)C)cc21 | 8 | 0.3 | 45 | 4.9 | 8.9 |
| CC(=O)N[C@@H](Cc1cc(F)cc(F)c1)[C@H](O)CN[C@H]1CC(C)(C)Oc2ccc(CC(C)(F)F)cc21 | 16 | 1.7 | 9 |  |  |
| CC(=O)N[C@@H](Cc1cc(F)cc(F)c1)[C@H](O)CN[C@H]1CCOc2ccc(OC3CCCO3)cc21 (mixture of isomers) | 286 | 11 | 1320 |  |  |
| CC(=O)N[C@@H](Cc1cc(F)cc(F)c1)[C@H](O)CN[C@H]1CCOc2ccc(OC(C)C)cc21 | 429 | 11.2 | 414 |  |  |
| CCCCc1ccc2c(c1)[C@@H](NC[C@@H](O)[C@H](Cc1cc(F)cc(F)c1)NC(C)=O)CCC2 | 77 |  | 574 |  |  |
| CC(=O)N[C@@H](Cc1cc(F)cc(F)c1)[C@H](O)CN[C@H]1CCOc2ccc(CC(C)(C)F)cc21 | 80 | 8.3 | 148 |  |  |
| COC[C@@]1(C)C[C@H](NC[C@@H](O)[C@H](Cc2cc(F)cc(F)c2)NC(C)=O)c2cc(CC(C)(C)C)ccc2O1 (mixture of isomers) | 5 |  | 9 |  |  |
| CC(=O)N[C@@H](Cc1cc(F)cc(F)c1)[C@H](O)CN[C@H]1CC(C)(C)Oc2ccc(CC(C)(C)C#N)cc21 | 8 | 2.5 | 6 |  |  |
| CC(=O)N[C@@H](Cc1cc(F)cc(F)c1)[C@H](O)CN[C@H]1CCOc2ccc(CC(C)(C)C(F)F)cc21 | 478 |  | 1300 |  |  |
| CC(=O)N[C@@H](Cc1cc(F)cc(F)c1)[C@H](O)CN[C@H]1CCCc2ccc(C(C)(C)C)cc21 | 74 |  | 378 |  |  |
| CC(=O)N[C@@H](Cc1cc(F)cc(F)c1)[C@H](O)CN[C@H]1CC2(COC2)Oc2ccc(CC(C)(C)C)cc21 | 22500 |  | 27100 |  |  |
| CC(=O)N[C@@H](Cc1cc(F)cc(F)c1)[C@H](O)CN[C@H]1CC(C)(C)Oc2ccc(CC(C)(C)C)cc21 | 18 | 0.3 | 8 |  |  |
| CC(=O)N[C@@H](Cc1cc(F)cc(F)c1)[C@H](O)CN[C@H]1CC(C)(C)Oc2ccc(OC(C)(C)C)cc21 | 374 | 1.1 | 690 |  |  |
| CC(=O)N[C@@H](Cc1cc(F)cc(F)c1)[C@H](O)CN[C@H]1CC(C)(C)Oc2ccc(OC(F)(F)F)cc21 | 59 | 1.2 | 89 |  |  |
